{
  "source": "patent US9622429B2",
  "about": "“Method for increasing plant biomass” (BioMass Booster, S.L., priority 2010, dated 2017)",
  "format_in_all_cases": "cell-based",
  "key": {"Chlorella": {"test_system": "Chlorella", "test": "Microalgae growth in culture, absorbance at 680 nm", "settings": "final concentration of 10^−8 M AM, Guillard F/2 medium, 5% CO2, 12 hours light/12 hours dark", "experimental": "Two identical cultures of Chlorella in Guillard F/2 medium [Guillard, R. R. L. 1975. Culture of phytoplankton for feeding marine invertebrates. pp 26-60. In Smith W. L. and Chanley M. H (Eds.) Culture of Marine Invertebrate Animals. Plenum Press, New York, USA.; Guillard, R. R. L. and Ryther, J. H. 1962. Studies of marine planktonic diatoms. I. Cyclotella nana Hustedt and Detonula confervacea Cleve. Can. J. Microbiol. 8: 229-239] (250 ml each) were prepared in two separate glass flasks. Then, 100 μl of said Guillard F/2 medium were added to a flask and 100 μl of said Guillard F/2 medium containing the synthetic peptide human adrenomedullin (AM) (Phoenix Pharmaceuticals, Burlingame, Calif., USA) in a sufficient amount to achieve a final concentration of 10^−8 M to the other flask.\nAir containing 5% CO2 was continuously bubbled in the culture. The flasks were illuminated with a photoperiod of 12 hours light/12 hours dark.\nAliquots from the medium were periodically collected in order to assess the microalgae growth. Absorbance was measured at 680 nm with a Perkin Elmer Lambda 35 UV/Visible spectrofotometer."}, "[1]": {"test_system": "Carrot (Daucus carota) calli", "test": "Callus growth (biomass increase) on medium containing adrenomedullin, carrot", "excerpt": "(§1) Carrot (Daucus carota) and tobacco (Nicotiana tabacum) calli were supplied by Carolina Biological Supply Company (Burlington, N.C., USA) and kept under sterile conditions in solid callus initiation medium for carrots or for tobacco respectively (also acquired from Carolina Biological). The specific composition thereof is available in the company's catalog. A single callus was split into small fragments and these fragments were weighed under sterile conditions and seeded on fresh medium (solid callus initiation medium acquired from Carolina Biologicals) which contained different concentrations of the synthetic peptide human adrenomedullin (AM) (Phoenix Pharmaceuticals, Burlingame, Calif., USA). After 30 days of growth in the dark, the calli were weighed again and the growth rate was calculated as the quotient of the final weight divided by the initial weight. The dry weight of each sample was calculated by subjecting the calli to an oven drying process at […] for 24 hours."}, "[2]": {"test_system": "tobacco (Nicotiana tabacum) calli", "test": "Callus growth (biomass increase) on medium containing adrenomedullin, tobacco", "excerpt": "as §1"}, "[3]": {"settings": "different concentrations of AM, 30 days of growth in the dark"}, "[4]": {"settings": "oven drying at 250° C. for 24 hours"}},
  "data": [
    {"substance": "human adrenomedullin [AM]", "values": [
      {"measurement": "microalgae growth (absorbance at 680 nm)", "setting": "Chlorella", "value": "grow up faster and reach the stationary phase sooner than the non-treated microalgae"},
      {"measurement": "most effective concentration of AM for stimulating cell growth", "setting": "[1]; 30 days of growth in the dark", "value": "10^−10 M"},
      {"measurement": "growth of the calli (growth rate = final weight / initial weight)", "setting": "[1]; [3]", "value": "growth increase in the calli following a dose-dependent response"},
      {"measurement": "increase in the biomass when compared with the control", "setting": "[1]; optimal dose of AM, 30 days", "value": 60, "unit": "%"},
      {"measurement": "dry weight of the tissue", "setting": "[1]; [4]", "value": "differences were maintained"},
      {"measurement": "most effective concentration of AM for stimulating cell growth", "setting": "[2]; 30 days of growth in the dark", "value": "10^−10 M"},
      {"measurement": "growth of the calli (growth rate = final weight / initial weight)", "setting": "[2]; [3]", "value": "growth increase in the calli following a dose-dependent response"},
      {"measurement": "increase in the biomass when compared with the control", "setting": "[2]; optimal dose of AM, 30 days", "value": 60, "unit": "%"},
      {"measurement": "dry weight of the tissue", "setting": "[2]; [4]", "value": "differences were maintained"}
    ]}
  ]
}
